Data reported in ChEMBL document CHEMBL3585344, “Thiazole-based aminopyrimidines and N-phenylpyrazolines as potent antimicrobial agents: synthesis and biological evaluation” (2014).
≈ marks a conversion by molar mass, not a printed value.

Columns and labels:
Micrococcus flavus [1] = assay: Antibacterial activity against Micrococcus flavus ATCC 10240 after 24 hrs by microdilution method; format: functional; settings: ATCC 10240, 24 h
Staphylococcus aureus [2] = assay: Antibacterial activity against Staphylococcus aureus ATCC 6538 after 24 hrs by microdilution method; format: functional; settings: ATCC 6538, 24 h
Enterobacter cloacae [3] = assay: Antibacterial activity against Enterobacter cloacae ATCC 35030 isolated from human after 24 hrs by microdilution method; format: functional; settings: ATCC 35030, 24 h
Enterococcus faecalis [4] = assay: Antibacterial activity against Enterococcus faecalis ATCC 7080 isolated from human after 24 hrs by microdilution method; format: functional; settings: ATCC 7080, 24 h
Escherichia coli [5] = assay: Bactericidal activity against Escherichia coli ATCC 35210 after 72 hrs by microdilution method; format: functional
Pseudomonas aeruginosa [6] = assay: Bactericidal activity against Pseudomonas aeruginosa ATCC 27853 after 72 hrs by microdilution method; format: functional
Salmonella typhimurium [7] = assay: Antibacterial activity against Salmonella typhimurium ATCC 13311 after 24 hrs by microdilution method; format: functional, Salmonella enterica subsp. enterica serovar Typhimurium; settings: Salmonella enterica, ATCC 13311, 24 h
Enterococcus faecalis [8] = assay: Bactericidal activity against Enterococcus faecalis ATCC 7080 isolated from human after 72 hrs by microdilution method; format: functional
Pseudomonas aeruginosa [9] = assay: Antibacterial activity against Pseudomonas aeruginosa ATCC 27853 after 24 hrs by microdilution method; format: functional; settings: ATCC 27853, 24 h
Escherichia coli [10] = assay: Antibacterial activity against Escherichia coli ATCC 35210 after 24 hrs by microdilution method; format: functional; settings: ATCC 35210, 24 h
Salmonella typhimurium [11] = assay: Bactericidal activity against Salmonella typhimurium ATCC 13311 after 72 hrs by microdilution method; format: functional, Salmonella enterica subsp. enterica serovar Typhimurium
Enterobacter cloacae [12] = assay: Bactericidal activity against Enterobacter cloacae ATCC 35030 isolated from human after 72 hrs by microdilution method; format: functional
Bacillus cereus [13] = assay: Antibacterial activity against Bacillus cereus clinical isolate after 24 hrs by microdilution method; format: functional
Staphylococcus aureus [14] = assay: Bactericidal activity against Staphylococcus aureus ATCC 6538 after 72 hrs by microdilution method; format: functional
Bacillus cereus [15] = assay: Bactericidal activity against Bacillus cereus clinical isolate after 72 hrs by microdilution method; format: functional
Listeria monocytogenes [16] = assay: Antibacterial activity against Listeria monocytogenes NCTC 7973 after 24 hrs by microdilution method; format: functional; settings: NCTC 7973, 24 h
Micrococcus flavus [17] = assay: Bactericidal activity against Micrococcus flavus ATCC 10240 after 72 hrs by microdilution method; format: functional
Listeria monocytogenes [18] = assay: Bactericidal activity against Listeria monocytogenes NCTC 7973 after 72 hrs by microdilution method; format: functional
Trichoderma viride [19] = assay: Antifungal activity against Trichoderma viride IAM 5061 after 72 hrs by microdilution method; format: functional; settings: IAM 5061, 72 h
Candida albicans [20] = assay: Fungicidal activity against Candida albicans ATCC 10231 isolated from human after 72 hrs by microdilution method; format: functional
Talaromyces funiculosus [21] = assay: Fungicidal activity against Penicillium funiculosum ATCC 36839 after 72 hrs by microdilution method; format: functional
Aspergillus ochraceus [22] = assay: Antifungal activity against Aspergillus ochraceus ATCC 12066 after 72 hrs by microdilution method; format: functional; settings: ATCC 12066, 72 h
Candida albicans [23] = assay: Antifungal activity against Candida albicans ATCC 10231 isolated from human after 72 hrs by microdilution method; format: functional; settings: ATCC 10231, 72 h
Trichoderma viride [24] = assay: Fungicidal activity against Trichoderma viride IAM 5061 after 72 hrs by microdilution method; format: functional
Penicillium ochrochloron [25] = assay: Antifungal activity against Penicillium ochrochloron ATCC 9112 after 72 hrs by microdilution method; format: functional; settings: ATCC 9112, 72 h
Aspergillus fumigatus [26] = assay: Fungicidal activity against Aspergillus fumigatus isolated from human after 72 hrs by microdilution method; format: functional
Penicillium ochrochloron [27] = assay: Fungicidal activity against Penicillium ochrochloron ATCC 9112 after 72 hrs by microdilution method; format: functional
Aspergillus niger [28] = assay: Fungicidal activity against Aspergillus niger ATCC 6275 after 72 hrs by microdilution method; format: functional
Aspergillus flavus [29] = assay: Fungicidal activity against Aspergillus flavus ATCC 9643 after 72 hrs by microdilution method; format: functional
Aspergillus niger [30] = assay: Antifungal activity against Aspergillus niger ATCC 6275 after 72 hrs by microdilution method; format: functional; settings: ATCC 6275, 72 h
Aspergillus flavus [31] = assay: Antifungal activity against Aspergillus flavus ATCC 9643 after 72 hrs by microdilution method; format: functional; settings: ATCC 9643, 72 h
Aspergillus versicolor [32] = assay: Fungicidal activity against Aspergillus versicolor ATCC 11730 after 72 hrs by microdilution method; format: functional
Aspergillus ochraceus [33] = assay: Fungicidal activity against Aspergillus ochraceus ATCC 12066 after 72 hrs by microdilution method; format: functional
Aspergillus versicolor [34] = assay: Antifungal activity against Aspergillus versicolor ATCC 11730 after 72 hrs by microdilution method; format: functional; settings: ATCC 11730, 72 h
Talaromyces funiculosus [35] = assay: Antifungal activity against Penicillium funiculosum ATCC 36839 after 72 hrs by microdilution method; format: functional; settings: ATCC 36839, 72 h
Aspergillus fumigatus [36] = assay: Antifungal activity against Aspergillus fumigatus isolated from human after 72 hrs by microdilution method; format: functional

MIC (Micrococcus flavus [1]) [µM] | MIC (Staphylococcus aureus [2]) [µM] | MIC (Salmonella typhimurium [7]) [µM] | MIC (Pseudomonas aeruginosa [9]) [µM] | MIC (Escherichia coli [10]) [µM] | MIC (Bacillus cereus [13]) [µM] | MIC (Listeria monocytogenes [16]) [µM] | MIC (Trichoderma viride [19]) [µM] | MIC (Aspergillus ochraceus [22]) [µM] | MIC (Penicillium ochrochloron [25]) [µM] | Compound | MBC99.5 (Escherichia coli [5]) [×10⁻² umol/ml] | MBC99.5 (Pseudomonas aeruginosa [6]) [×10⁻² umol/ml] | MBC99.5 (Salmonella typhimurium [11]) [×10⁻² umol/ml] | MBC99.5 (Staphylococcus aureus [14]) [×10⁻² umol/ml] | MBC99.5 (Bacillus cereus [15]) [×10⁻² umol/ml] | MBC99.5 (Micrococcus flavus [17]) [×10⁻² umol/ml] | MBC99.5 (Listeria monocytogenes [18]) [×10⁻² umol/ml] | MFC99.5 (Talaromyces funiculosus [21]) [×10⁻² umol/ml] | MFC99.5 (Trichoderma viride [24]) [×10⁻² umol/ml] | MFC99.5 (Aspergillus fumigatus [26]) [×10⁻² umol/ml] | also measured
248 (≈ 86.7 µg/mL) | 248 (≈ 86.7 µg/mL) | 248 (≈ 86.7 µg/mL) | 744 (≈ 260 µg/mL) | 372 (≈ 130 µg/mL) | 248 (≈ 86.7 µg/mL) | 372 (≈ 130 µg/mL) | – | – | – | CC1(C)S[C@@H]2[C@H](NC(=O)[C@H](N)c3ccccc3)C(=O)N2[C@H]1C(=O)O [AMPICILLIN] | 49.2 | 124 | 49.2 | 37.2 | 37.2 | 37.2 | 74.4 | – | – | – | MIC (Enterobacter cloacae [3]): 248 µM (≈ 86.7 µg/mL); MIC (Enterococcus faecalis [4]): 248 µM (≈ 86.7 µg/mL); MBC99.5 (Enterococcus faecalis [8]): 37.2 ×10⁻² umol/ml; MBC99.5 (Enterobacter cloacae [12]): 37.2 ×10⁻² umol/ml
33.7 (≈ 10 µg/mL) | 84.1 (≈ 25 µg/mL) | 33.7 (≈ 10 µg/mL) | 33.7 (≈ 10 µg/mL) | 33.7 (≈ 10 µg/mL) | 33.7 (≈ 10 µg/mL) | 101 (≈ 30 µg/mL) | 25.2 (≈ 7.49 µg/mL) | 33.7 (≈ 10 µg/mL) | 33.7 (≈ 10 µg/mL) | CNc1nc(C)c(-c2cc(-c3ccccc3)nc(N)n2)s1 | 6.74 | 6.74 | 6.74 | 10.1 | 6.74 | 8.41 | 11.81 | 6.74 | 3.37 | 6.74 | MFC99.5 (Candida albicans [20]): 6.74 ×10⁻² umol/ml; MIC (Enterobacter cloacae [3]): 67.4 µM (≈ 20 µg/mL); MIC (Candida albicans [23]): 33.7 µM (≈ 10 µg/mL); MFC99.5 (Penicillium ochrochloron [27]): 5.05 ×10⁻² umol/ml; MFC99.5 (Aspergillus niger [28]): 6.74 ×10⁻² umol/ml; MFC99.5 (Aspergillus flavus [29]): 6.74 ×10⁻² umol/ml; MIC (Aspergillus niger [30]): 50.5 µM (≈ 15 µg/mL); MIC (Aspergillus flavus [31]): 50.5 µM (≈ 15 µg/mL); MBC99.5 (Enterobacter cloacae [12]): 8.41 ×10⁻² umol/ml; MFC99.5 (Aspergillus ochraceus [33]): 6.74 ×10⁻² umol/ml; MIC (Talaromyces funiculosus [35]): 33.7 µM (≈ 10 µg/mL); MIC (Aspergillus fumigatus [36]): 50.5 µM (≈ 15 µg/mL)
58 (≈ 20 µg/mL) | 14.5 (≈ 4.99 µg/mL) | 290 (≈ 99.9 µg/mL) | 290 (≈ 99.9 µg/mL) | 348 (≈ 120 µg/mL) | 58 (≈ 20 µg/mL) | 14.5 (≈ 4.99 µg/mL) | 14.5 (≈ 4.99 µg/mL) | 14.5 (≈ 4.99 µg/mL) | 348 (≈ 120 µg/mL) | Cc1nc(-c2ccccc2)sc1-c1cc(-c2ccccc2)nc(N)n1 | 40.6 | 40.6 | 34.8 | 5.8 | 40.6 | 29 | 36.25 | 34.8 | 29 | 34.8 | MIC (Enterococcus faecalis [4]): 290 µM (≈ 99.9 µg/mL); MFC99.5 (Penicillium ochrochloron [27]): 40.6 ×10⁻² umol/ml; MFC99.5 (Aspergillus niger [28]): 40.6 ×10⁻² umol/ml; MFC99.5 (Aspergillus flavus [29]): 29 ×10⁻² umol/ml; MIC (Aspergillus niger [30]): 58 µM (≈ 20 µg/mL); MBC99.5 (Enterococcus faecalis [8]): 34.8 ×10⁻² umol/ml; MIC (Aspergillus flavus [31]): 58 µM (≈ 20 µg/mL); MFC99.5 (Aspergillus versicolor [32]): 9 ×10⁻² umol/ml; MFC99.5 (Aspergillus ochraceus [33]): 5.8 ×10⁻² umol/ml; MIC (Aspergillus versicolor [34]): 14.5 µM (≈ 4.99 µg/mL); MIC (Talaromyces funiculosus [35]): 348 µM (≈ 120 µg/mL); MIC (Aspergillus fumigatus [36]): 58 µM (≈ 20 µg/mL)

Compound | MIC (Micrococcus flavus [1]) [µM] | MIC (Staphylococcus aureus [2]) [µM] | MIC (Salmonella typhimurium [7]) [µM] | MIC (Pseudomonas aeruginosa [9]) [µM] | MIC (Escherichia coli [10]) [µM] | MIC (Bacillus cereus [13]) [µM] | MIC (Listeria monocytogenes [16]) [µM] | MIC (Trichoderma viride [19]) [µM] | MIC (Aspergillus ochraceus [22]) [µM] | MIC (Penicillium ochrochloron [25]) [µM] | MBC99.5 (Escherichia coli [5]) [×10⁻² umol/ml] | MBC99.5 (Pseudomonas aeruginosa [6]) [×10⁻² umol/ml] | MBC99.5 (Salmonella typhimurium [11]) [×10⁻² umol/ml] | MBC99.5 (Staphylococcus aureus [14]) [×10⁻² umol/ml] | MBC99.5 (Bacillus cereus [15]) [×10⁻² umol/ml] | MBC99.5 (Micrococcus flavus [17]) [×10⁻² umol/ml] | MBC99.5 (Listeria monocytogenes [18]) [×10⁻² umol/ml] | MFC99.5 (Talaromyces funiculosus [21]) [×10⁻² umol/ml] | MFC99.5 (Trichoderma viride [24]) [×10⁻² umol/ml] | MFC99.5 (Aspergillus fumigatus [26]) [×10⁻² umol/ml] | also measured
c1ccc(-c2ccc(C(c3ccccc3)n3ccnc3)cc2)cc1 (stereo not given) [BIFONAZOLE] | – | – | – | – | – | – | – | 640 (≈ 199 µg/mL) | 480 (≈ 149 µg/mL) | 480 (≈ 149 µg/mL) | – | – | – | – | – | – | – | 80 | 80 | 64 | MFC99.5 (Candida albicans [20]): 48.3 ×10⁻² umol/ml; MIC (Candida albicans [23]): 322 µM (≈ 99.9 µg/mL); MFC99.5 (Penicillium ochrochloron [27]): 64 ×10⁻² umol/ml; MFC99.5 (Aspergillus niger [28]): 64 ×10⁻² umol/ml; MFC99.5 (Aspergillus flavus [29]): 64 ×10⁻² umol/ml; MIC (Aspergillus niger [30]): 480 µM (≈ 149 µg/mL); MIC (Aspergillus flavus [31]): 480 µM (≈ 149 µg/mL); MFC99.5 (Aspergillus versicolor [32]): 64 ×10⁻² umol/ml; MFC99.5 (Aspergillus ochraceus [33]): 80 ×10⁻² umol/ml; MIC (Aspergillus versicolor [34]): 480 µM (≈ 149 µg/mL); MIC (Talaromyces funiculosus [35]): 640 µM (≈ 199 µg/mL); MIC (Aspergillus fumigatus [36]): 480 µM (≈ 149 µg/mL)
